Experimental data taken from US20050009772A1, “Methods and compositions for the treatment of glaucoma and other retinal diseases” (The Regents of the University of California, priority 2003, published 2005).
“Also recorded” adds a separate entry of the source.

How the values were obtained:
HSP72 [1] = experiment: Western blot for HSP72 in enriched RGC fraction after systemic administration of GGA (Experiment 1); type: in vivo, rat; conditions: GGA 200 mg/kg daily i.p.
Description: Experiment 1 was performed to evaluate the expression of HSP72 and HSC70 in RGCs after systemic administration of GGA with Western blot analysis and immunohistochemistry. For Western blotting, twelve rats were equally divided into 6 groups. Three groups of animals were given intraperitoneal injections of GGA 200 mg/kg daily and were euthanized after 1-, 3- or 7 days of administration of GGA. Three control groups were intraperitoneally administered 1) saline-vehicle daily for 7 days; 2) GGA with 4 mg/kg of quercetin (Sigma, St. Louis, Mo.) daily for 7 days; and 3) untreated animals. Enriched RGC fraction was harvested from 2 retinas of each group and used for Western blot analysis. The same experiment for isolation of RGCs and Western blotting was repeated with the other 2 retinas-from each group.
A solution of 80 mg/mL GGA was prepared in saline (Balanced salt solution; Alcon Laboratories, Inc., Fort Worth, Tex.) and emulsified for one hour in an ultrasonic generator (Branson Ultrasonic Corp., Danbury, Conn.) immediately before administration. Intraperitoneal injections of GGA were given at a dose of 200 mg/kg. Saline-vehicle was prepared and administered in the same fashion in vehicle-treated control groups.
A previously described method was modified to partially purify RGCs from other retinal cells in rat retinas.38 Briefly, two dissected rat retinas from each subgroup were washed in 2.5 ml of calcium- and magnesium-free phosphate buffered saline (PBS) at pH 7.4, and incubated in 1.25 ml of PBS containing 0.5 mg/ml trypsin and 0.01% deoxyribonuclease for 15 minutes at 37° C. This was followed by washing the retinas twice in 2.5 ml of minimal essential medium (MEM) containing 10% (vol/vol) fetal bovine serum. The retinas were subsequently washed in 2.5 ml of MEM twice and dissociated in 3 ml of MEM. The cell suspension was then mixed with 1.5 ml of 30% metrizamide (ICN Biomedicals, Inc., Aurora, Ohio) in MEM to a final concentration of 10 metrizamide. This mixture was then overlaid with 5% metrizamide in MEM, and the gradient was centrifuged at 4500 rpm (HB-4; Sorvall Instruments, Newtown, Conn.) for 25 minutes at 4° C. The cells in the 5% to 10% interface were collected. and washed in 25 ml of cold MEM. The washed cells were pelleted by centrifugation at 250×g for 10 minutes (Juan 3000C centrifuge, Winchester, Va.). The cells were then resuspended in 400 μl of MEM buffer, and the protein concentration in the cell suspension was measured with a bicinchoninic acid (BCA) protein assay kit (Pierce, Rockford, Ill.).
Western blot analysis was performed according to the procedure described by Towbin et al.39 Aliquots of 20 μg of protein from enriched RGCs were separated on a 12% SDS-polyacrylamide minigel (Bio-Rad, Hercules, Calif.) and transferred to the membrane (Immunobilon-P; Millipore Corporation, Bedford, Mass.). The membrane was blocked by incubation in 0.1% Tween-20 in 100 mM Tris-buffered saline containing 10% nonfat dried milk for 1 hour. The membranes were incubated with mouse monoclonal antibody against HSP72 (1:1000; StressGen Biotechnologies Corp., Victoria, British Columbia, Canada) or with rat monoclonal antibody against HSC70 (1:1000; StressGen) overnight and then biotinylated rabbit anti-mouse secondary antibody (1:500; Amersham Pharmacia Biotech, Inc., Piscataway, N.J.) or biotinylated goat anti-rat secondary antibody (1:500; Amersham Pharmacia) for 1 hour. This was followed by incubation with streptavidin-conjugated horseradish peroxidase (1:2000; Amersham Pharmacia) for 40 minutes. The immunoreactive bands were detected by chemiluminescence with an enhanced chemiluminescence Western blot reagent (Amersham Pharmacia).

HSP72 [2] = experiment: Immunohistochemical staining for HSP72 on retinal sections after GGA administration (Experiment 1); type: in vivo, rat
Description: Three experiments are summarized here, and details are provided in the subsequent sections. […] For Western blotting, twelve rats were equally divided into 6 groups. […] Enriched RGC fraction was harvested from 2 retinas of each group and used for Western blot analysis. The same experiment for isolation of RGCs and Western blotting was repeated with the other 2 retinas-from each group.
Animals were deeply anesthetized with intramuscular injections of 0.8 ml/kg of a cocktail of 5 ml ketamine (100 mg/ml), 2.5 ml xylazine (20 mg/ml), 1.0 ml acepromazine (10 mg/ml), and 1.5 ml normal saline. Then they were transcardially perfused with 4% paraformaldehyde in 0.1 M phosphate buffer. The enucleated eyeballs were immersed in fixative for 1 hour, bisected and post-fixed overnight. The eyes were embedded in paraffin and sectioned at a four-μm thickness along the vertical meridian through the optic nerve head. After deparaffinization and hydration, a species-specific Vectastain ABC kit (Vector Laboratories, Inc., Burlingame, Calif.) was chosen to match the species of primary antibody and the manufacturer's procedures were followed. The tissue sections were incubated with blocking serum solution in PBS for 1 hour. This was followed by incubation with primary antibody at 4° C overnight. The antibodies were mouse monoclonal antibody against HSP72 (1:500; StressGen Biotechnologies Corp., Victoria, British Columbia, Canada), goat polyclonal antibody against HSP72 (1:1000; Santa Cruz Biotechnology, Inc., Santa Cruz, Calif.) or rat monoclonal antibody against HSC70 (1:200; StressGen). Antigen-antibody complexes were detected by an avidin-biotin-peroxidase technique (Vectastain ABC Kit; Vector Laboratories). Diaminobenzidine (DAB) was used to produce a brown color in the target tissue and the slides were permanently mounted. As a negative control, alternate retinal section was incubated with blocking solution by replacing the primary antibody or with anti-rabbit secondary antibody by replacing the original secondary antibody.

[3] = system: retinal ganglion cells (RGCs); experiment: Density of DTMR-labeled RGCs in rat glaucoma model (Experiment 2); type: in vivo
Description: GGA was then given twice a week at the same dose until euthanasia. Sustained elevation of intraocular pressure (IOP) was maintained by performing trabecular laser photocoagulation three weeks after the first photocoagulation. […] IOP and body weight were measured once a week. […] Rats were anesthetized with intramuscular injections of 0.8 ml/kg of the anesthetic cocktail described above. A previously published procedure was modified to produce chronic moderately elevated IOP unilaterally, while the untreated contralateral eye served as the comparative control.40 Animals were injected intracamerally with 10 μl of 35% India ink (Becton Dickinson, Cockeysville, Md.) in 0.01 M PBS after removing a similar volume of aqueous. At the end of the procedure, Tobrex ophthalmic ointment (tobramycin 0.3%; Alcon, Fort Worth, Tex.) was applied topically. Five days after intracameral injection of India ink, a dark band at the limbus was noted due to the aggregation of carbon particles in the trabecular meshwork.38 After anesthesia, approximately 200 laser burns were delivered ab externo to the pigmented trabecular band at laser settings of 200 μm diameter, 200 mW power and 0.2 seconds duration. Three weeks after the first laser treatment, another trabecular laser photocoagulation was performed without further injection of ink. […] A cross section of the optic nerve was made with the needle knife through the opening of the optic nerve sheath, with care not to damage the adjacent blood supply. DTMR crystals were applied to the proximal cut surface of the optic nerve to label RGCs by fast retrograde axonal transport. After euthanasia and enucleation, the retinas were dissected and flattened with four radial cuts (superotemporal, inferotemporal, superonasal, and inferonasal). They were placed with vitreal side up on glass slides, dried in the dark at room temperature overnight and mounted. The retinas were examined with a fluorescence microscope (Axioplan; Carl Zeiss, Oberkochen, Germany) equipped with a filter that permits visualization of rhodamine fluorescence (excitation filter BP 546, barrier filter LP590; Carl Zeiss). The counting of RGCs was conducted by 2 examiners in a masked fashion. […] Each rectangular area measured 0.475 mm×0.362 mm and the total counted area corresponded to approximately 3.1% of each total retinal area. Data are expressed as number of RGCs per mm2.

[4] = system: cells in the retinal ganglion cell layer (RGCL); experiment: Counting of cresyl violet-stained cells in the RGCL in rat glaucoma model (Experiment 2); type: in vivo
Description: GGA was then given twice a week at the same dose until euthanasia. Sustained elevation of intraocular pressure (IOP) was maintained by performing trabecular laser photocoagulation three weeks after the first photocoagulation. […] IOP and body weight were measured once a week. After 5 weeks of IOP elevation, the number of retrogradely labeled RGCs with dextran tetramethylrhodamine (DTMR) was counted (n=53). The grading of optic nerve injury and the counting of cresyl violet-stained cells in the retinal ganglion cell layer (RGCL) was also performed (n=54).
Rats were anesthetized with intramuscular injections of 0.8 ml/kg of the anesthetic cocktail described above. A previously published procedure was modified to produce chronic moderately elevated IOP unilaterally, while the untreated contralateral eye served as the comparative control.40 Animals were injected intracamerally with 10 μl of 35% India ink (Becton Dickinson, Cockeysville, Md.) in 0.01 M PBS after removing a similar volume of aqueous. At the end of the procedure, Tobrex ophthalmic ointment (tobramycin 0.3%; Alcon, Fort Worth, Tex.) was applied topically. Five days after intracameral injection of India ink, a dark band at the limbus was noted due to the aggregation of carbon particles in the trabecular meshwork.38 After anesthesia, approximately 200 laser burns were delivered ab externo to the pigmented trabecular band at laser settings of 200 μm diameter, 200 mW power and 0.2 seconds duration. Three weeks after the first laser treatment, another trabecular laser photocoagulation was performed without further injection of ink.
Corresponding loss of cells from the RGCL was evaluated by counting cells in the RGCL in cresyl violet-stained retinas. After collecting the optic nerves, enucleated eyeballs were postfixed in 10% neutral buffered formalin for 1 hour and washed in 0.1 M phosphate buffer (pH 7.4). The retinas were dissected and flat mounted on a slide, vitreal side up. Four radial cuts were made in the peripheral retinas. The specimens were dried overnight, stained with 1% cresyl violet, dehydrated, and covered with coverslips. Morphologically distinguishable glial cells and vascular endothelial cells were not counted. Cells with cytoplasm rich in Nissl substance and with irregular outlines were counted as neurons.43 The numbers of neurons in the RGCL in regions 1 mm (posterior), 2 mm (mid-peripheral) and 3 mm (peripheral) from the center of the optic nerve head were taken with an eye-piece reticule of a microscope at 400× magnification. The counting was performed by two investigators in a masked fashion and averaged.

[5] = system: TUNEL positive cells in the RGCL; experiment: TUNEL analysis of RGCL after 1 week of IOP elevation (Experiment 3); type: in vivo, rat
Description: Experiment 3 was performed to investigate the inhibition of apoptosis with GGA administration after 1 week of IOP elevation (n=56).
Rats were anesthetized with intramuscular injections of 0.8 ml/kg of the anesthetic cocktail described above. […] At the end of the procedure, Tobrex ophthalmic ointment (tobramycin 0.3%; Alcon, Fort Worth, Tex.) was applied topically. Five days after intracameral injection of India ink, a dark band at the limbus was noted due to the aggregation of carbon particles in the trabecular meshwork.38 After anesthesia, approximately 200 laser burns were delivered ab externo to the pigmented trabecular band at laser settings of 200 μm diameter, 200 mW power and 0.2 seconds duration. Three weeks after the first laser treatment, another trabecular laser photocoagulation was performed without further injection of ink.
Four-μm thick paraffin embedded sections along the vertical meridian of the optic nerve head were collected and a minimum of 6 retinal sections (8 μm apart) per eyeball was used for counting the number of TUNEL positive cells in the RGCL. Only full length and undamaged retinal sections without oblique orientation were used. The procedures described in the ApopTag Peroxidase In Situ Apoptosis Detection Kit (Intergen Co., Purchase, N.Y.) were followed and diaminobenzidine (Sigma, St. Louis, Mo.) was used as a color substrate. Counting was performed by two masked investigators with light microscopy, and averaged.

[6] = contralateral controls (normal IOP)
[7] = retinas with IOP elevation, 5 weeks

In the case of Geranylgeranylacetone [GGA], the “immunoreactivity of HSP72 in RGCs (immunoblot)” value (“immunoreactivity … (immunoblot)” below) (HSP72 [1]; 1 day) is reported as “mild increase in immunoreactivity”, the “immunoreactivity … (immunoblot)” value (HSP72 [1]; 3 days) is reported as “increased HSP72 expression; also recorded: strong increase in immunoreactivity” and the “immunoreactivity … (immunoblot)” value (HSP72 [1]; 7 days) is reported as “increased HSP72 expression; also recorded: strong increase in immunoreactivity”. For the same substance, the “immunoreactivity of HSP72 in other retinal layers” value (HSP72 [2]; GGA i.p. 7 days) was “No remarkable change”, the “immunoreactivity of HSP72 in cells in the RGCL (immunohistochemical staining)” value (HSP72 [2]; GGA i.p. 7 days vs vehicle-treated) was “Increased immunoreactivity of HSP72” and the “levels of HSP72 in RGCs (immunohistochemical staining)” value (HSP72 [2]; oral daily dose of GGA for one week, assayed one week after last oral administration) was “increased levels of HSP72”. For the same substance, the “density of DTMR-labeled RGCs” value [3, 6] was 1077±48 cells/mm2, the “density of DTMR-labeled RGCs vs vehicle-treated controls (in words)” value [3, 6] was “no statistical significance” and the “density of DTMR-labeled RGCs” value [3, 7] was 1044±36 cells/mm2. The “more DTMR-labeled cells preserved compared with vehicle” value [3, 7] was 57%, the “effect on density of DTMR-labeled RGCs (in words)” value ([3]; retinas with IOP elevation, 5 weeks, quercetin = co-administered with GGA) was “higher density; also recorded: partial” and the “cells in the RGCL (cresyl violet)” value ([4]; 5 weeks of elevated IOP) was 2697±70 cells/mm2. The “effect on loss of cells in the RGCL (in words)” value ([4]; 5 weeks of elevated IOP) was “inhibited the loss of cells”, the “cells in the RGCL (cresyl violet)” value ([4]; contralateral control retinas) was 2644±59 cells/mm2 and the “effect on number of cells in the RGCL (in words)” value ([4]; contralateral control retinas) was “no significant effect”. For the same substance, the “inhibition of cell death” value ([5]; 1 week of IOP elevation) was 57%, the “number of TUNEL positive cells in the RGCL” value ([5]; 1 week of IOP elevation) was 0.53±0.11 per retinal section and the “effect on number of TUNEL positive cells (in words)” value ([5]; elevated IOP retinas, 1 week, quercetin = co-administered with GGA) was “significantly reduced”.
